According to patent publication US20250230193A1, “CYCLIC COMPOUND HAVING SELECTIVE KRAS INHIBITORY EFFECT ON HRAS AND NRAS” (CHUGAI SEIYAKU KABUSHIKI KAISHA, priority 2022, published 2025):
*1 amine or outer side, *2 acyl side, *3 side chain or, on linkers, in order; H or OH if unused. Where a SMILES comes first, the peptide text is derived from it. Bridges are numbered along the chain shown (N, C = ends). [ ]: non-standard residue; d: D form. The star is where a group is joined. X24 = O=C([C@H](Cc1ccc(C(F)(F)F)cc1)N(CCC(F)(F)F)[*:1])[*:2]; X6 = CC(C)(C)CCN([C@@H](Cc1ccc(C(F)(F)F)cc1)C(=O)[*:2])[*:1]; X21 = O=C([C@H](Cc1ccc(C(F)(F)F)cc1)N(CC1CCCC1)[*:1])[*:2]; hPhe(3-Cl-4-CF3) = N[C@@H](CCc1ccc(C(F)(F)F)c(Cl)c1)C(=O)O; X23 = CC(C)CN([C@@H](Cc1ccc(C(F)(F)F)cc1)C(=O)[*:2])[*:1]; X37 = O=C([C@H](Cc1ccc(C(F)(F)F)cc1)N(CC1CCC1)[*:1])[*:2]; X18 = C=CCCN([C@@H](Cc1ccc(C(F)(F)F)cc1)C(=O)[*:2])[*:1]; X31 = O=C([C@H](Cc1ccc(C(F)(F)F)cc1)N(CC1CC1)[*:1])[*:2]; X42 = COCCCN([C@@H](Cc1ccc(C(F)(F)F)cc1)C(=O)[*:2])[*:1]; X11 = C=CCN([C@@H](Cc1ccc(C(F)(F)F)cc1)C(=O)[*:2])[*:1]; X17 = CCCCN([C@@H](Cc1ccc(C(F)(F)F)cc1)C(=O)[*:2])[*:1]; X28 = C#CCN([C@@H](Cc1ccc(C(F)(F)F)cc1)C(=O)[*:2])[*:1]; X32 = COCCN([C@@H](Cc1ccc(C(F)(F)F)cc1)C(=O)[*:2])[*:1]; NMeGly(cPent) = CN[C@H](C(=O)O)C1CCCC1; NMeD = CN[C@@H](CC(=O)O)C(=O)O; NMeL = CN[C@@H](CC(C)C)C(=O)O; Morpholide = C1CN(*)CCO1; NMeA = CN[C@@H](C)C(=O)O; Ac5c = NC1(C(=O)O)CCCC1; Aze = O=C(O)[C@@H]1CCN1; Sar = CNCC(=O)O

Columns and labels:
[1] = target: GDP-bound HRAS wild-type protein (Homo sapiens, UniProt P01112); assay: Binding to HRAS by surface plasmon resonance (SPR), Single Cycle Kinetics; details: KD ratio HRAS/KRAS, SPR
[2] = target: GDP-bound NRAS wild-type protein (Homo sapiens, UniProt P01111); assay: Binding to NRAS by surface plasmon resonance (SPR), Single Cycle Kinetics; details: KD ratio NRAS/KRAS, SPR
Sequence of GDP-bound NRAS wild-type protein (P01111 whole entry): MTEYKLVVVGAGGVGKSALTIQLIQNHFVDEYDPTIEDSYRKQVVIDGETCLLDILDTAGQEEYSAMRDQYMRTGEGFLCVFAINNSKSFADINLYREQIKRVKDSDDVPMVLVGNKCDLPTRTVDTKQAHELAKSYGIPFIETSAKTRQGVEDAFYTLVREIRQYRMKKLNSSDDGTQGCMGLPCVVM

Sequence of GDP-bound HRAS wild-type protein (P01112 whole entry): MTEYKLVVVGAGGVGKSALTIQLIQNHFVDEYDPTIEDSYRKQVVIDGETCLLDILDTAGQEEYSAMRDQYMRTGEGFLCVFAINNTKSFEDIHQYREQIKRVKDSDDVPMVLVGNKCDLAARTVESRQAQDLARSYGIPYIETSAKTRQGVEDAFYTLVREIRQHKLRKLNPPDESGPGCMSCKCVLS

| SMILES | HRAS/KRAS (ratio of KD for GDP-bound HRAS wild-type to KD for KRAS) [1] | NRAS/KRAS (ratio of KD for GDP-bound NRAS wild-type to KD for KRAS) [2] |
| --- | --- | --- |
| CC[C@H](C)[C@@H]1NC(=O)[C@H](CC(C)C)N(C)C(=O)C[C@@H](C(=O)N2CCOCC2)N(C)C(=O)[C@H](C2CCCC2)N(C)C(=O)C2(CCCC2)NC(=O)[C@@H]2CCCN2C(=O)[C@H](CCc2ccc(C(F)(F)F)c(Cl)c2)NC(=O)CN(C)C(=O)[C@H](Cc2ccc(C(F)(F)F)cc2)N(CC2CC2)C(=O)[C@@H]2CCN2C(=O)[C@H](C)N(C)C1=O [PP0108] ([NMeL]I[NMeA][Aze][X31][Sar][hPhe(3-Cl-4-CF3)]P[Ac5c][NMeGly(cPent)][NMeD]-Morpholide; lactam N-11) | C (A compound having a KD ratio of 0.1 or more and less than 3 is denoted as C) | C (A compound having a KD ratio of 0.1 or more and less than 3 is denoted as C) |
| CC[C@H](C)[C@@H]1NC(=O)[C@H](CC(C)C)N(C)C(=O)C[C@@H](C(=O)N2CCOCC2)N(C)C(=O)[C@H](C2CCCC2)N(C)C(=O)C2(CCCC2)NC(=O)[C@@H]2CCCN2C(=O)[C@H](CCc2ccc(C(F)(F)F)c(Cl)c2)NC(=O)CN(C)C(=O)[C@H](Cc2ccc(C(F)(F)F)cc2)N(CC2CCC2)C(=O)[C@@H]2CCN2C(=O)[C@H](C)N(C)C1=O [PP0109] ([NMeL]I[NMeA][Aze][X37][Sar][hPhe(3-Cl-4-CF3)]P[Ac5c][NMeGly(cPent)][NMeD]-Morpholide; lactam N-11) | B (a compound having 3 or more and less than 10 is denoted as B) | C (A compound having a KD ratio of 0.1 or more and less than 3 is denoted as C) |
| CC[C@H](C)[C@@H]1NC(=O)[C@H](CC(C)C)N(C)C(=O)C[C@@H](C(=O)N2CCOCC2)N(C)C(=O)[C@H](C2CCCC2)N(C)C(=O)C2(CCCC2)NC(=O)[C@@H]2CCCN2C(=O)[C@H](CCc2ccc(C(F)(F)F)c(Cl)c2)NC(=O)CN(C)C(=O)[C@H](Cc2ccc(C(F)(F)F)cc2)N(CC2CCCC2)C(=O)[C@@H]2CCN2C(=O)[C@H](C)N(C)C1=O [PP0110] ([NMeL]I[NMeA][Aze][X21][Sar][hPhe(3-Cl-4-CF3)]P[Ac5c][NMeGly(cPent)][NMeD]-Morpholide; lactam N-11) | B (a compound having 3 or more and less than 10 is denoted as B) | C (A compound having a KD ratio of 0.1 or more and less than 3 is denoted as C) |
| CC[C@H](C)[C@@H]1NC(=O)[C@H](CC(C)C)N(C)C(=O)C[C@@H](C(=O)N2CCOCC2)N(C)C(=O)[C@H](C2CCCC2)N(C)C(=O)C2(CCCC2)NC(=O)[C@@H]2CCCN2C(=O)[C@H](CCc2ccc(C(F)(F)F)c(Cl)c2)NC(=O)CN(C)C(=O)[C@H](Cc2ccc(C(F)(F)F)cc2)N(CCC(C)(C)C)C(=O)[C@@H]2CCN2C(=O)[C@H](C)N(C)C1=O [PP0113] ([NMeL]I[NMeA][Aze][X6][Sar][hPhe(3-Cl-4-CF3)]P[Ac5c][NMeGly(cPent)][NMeD]-Morpholide; lactam N-11) | B (a compound having 3 or more and less than 10 is denoted as B) | C (A compound having a KD ratio of 0.1 or more and less than 3 is denoted as C) |
| C=CCN1C(=O)[C@@H]2CCN2C(=O)[C@H](C)N(C)C(=O)[C@H]([C@@H](C)CC)NC(=O)[C@H](CC(C)C)N(C)C(=O)C[C@@H](C(=O)N2CCOCC2)N(C)C(=O)[C@H](C2CCCC2)N(C)C(=O)C2(CCCC2)NC(=O)[C@@H]2CCCN2C(=O)[C@H](CCc2ccc(C(F)(F)F)c(Cl)c2)NC(=O)CN(C)C(=O)[C@@H]1Cc1ccc(C(F)(F)F)cc1 [PP0114] ([NMeL]I[NMeA][Aze][X11][Sar][hPhe(3-Cl-4-CF3)]P[Ac5c][NMeGly(cPent)][NMeD]-Morpholide; lactam N-11) | C (A compound having a KD ratio of 0.1 or more and less than 3 is denoted as C) | C (A compound having a KD ratio of 0.1 or more and less than 3 is denoted as C) |
| C=CCCN1C(=O)[C@@H]2CCN2C(=O)[C@H](C)N(C)C(=O)[C@H]([C@@H](C)CC)NC(=O)[C@H](CC(C)C)N(C)C(=O)C[C@@H](C(=O)N2CCOCC2)N(C)C(=O)[C@H](C2CCCC2)N(C)C(=O)C2(CCCC2)NC(=O)[C@@H]2CCCN2C(=O)[C@H](CCc2ccc(C(F)(F)F)c(Cl)c2)NC(=O)CN(C)C(=O)[C@@H]1Cc1ccc(C(F)(F)F)cc1 [PP0115] ([NMeL]I[NMeA][Aze][X18][Sar][hPhe(3-Cl-4-CF3)]P[Ac5c][NMeGly(cPent)][NMeD]-Morpholide; lactam N-11) | C (A compound having a KD ratio of 0.1 or more and less than 3 is denoted as C) | C (A compound having a KD ratio of 0.1 or more and less than 3 is denoted as C) |
| C#CCN1C(=O)[C@@H]2CCN2C(=O)[C@H](C)N(C)C(=O)[C@H]([C@@H](C)CC)NC(=O)[C@H](CC(C)C)N(C)C(=O)C[C@@H](C(=O)N2CCOCC2)N(C)C(=O)[C@H](C2CCCC2)N(C)C(=O)C2(CCCC2)NC(=O)[C@@H]2CCCN2C(=O)[C@H](CCc2ccc(C(F)(F)F)c(Cl)c2)NC(=O)CN(C)C(=O)[C@@H]1Cc1ccc(C(F)(F)F)cc1 [PP0116] ([NMeL]I[NMeA][Aze][X28][Sar][hPhe(3-Cl-4-CF3)]P[Ac5c][NMeGly(cPent)][NMeD]-Morpholide; lactam N-11) | C (A compound having a KD ratio of 0.1 or more and less than 3 is denoted as C) | C (A compound having a KD ratio of 0.1 or more and less than 3 is denoted as C) |
| CC[C@H](C)[C@@H]1NC(=O)[C@H](CC(C)C)N(C)C(=O)C[C@@H](C(=O)N2CCOCC2)N(C)C(=O)[C@H](C2CCCC2)N(C)C(=O)C2(CCCC2)NC(=O)[C@@H]2CCCN2C(=O)[C@H](CCc2ccc(C(F)(F)F)c(Cl)c2)NC(=O)CN(C)C(=O)[C@H](Cc2ccc(C(F)(F)F)cc2)N(CCC(F)(F)F)C(=O)[C@@H]2CCN2C(=O)[C@H](C)N(C)C1=O [PP0117] ([NMeL]I[NMeA][Aze][X24][Sar][hPhe(3-Cl-4-CF3)]P[Ac5c][NMeGly(cPent)][NMeD]-Morpholide; lactam N-11) | B (a compound having 3 or more and less than 10 is denoted as B) | B (a compound having 3 or more and less than 10 is denoted as B) |
| CC[C@H](C)[C@@H]1NC(=O)[C@H](CC(C)C)N(C)C(=O)C[C@@H](C(=O)N2CCOCC2)N(C)C(=O)[C@H](C2CCCC2)N(C)C(=O)C2(CCCC2)NC(=O)[C@@H]2CCCN2C(=O)[C@H](CCc2ccc(C(F)(F)F)c(Cl)c2)NC(=O)CN(C)C(=O)[C@H](Cc2ccc(C(F)(F)F)cc2)N(CCOC)C(=O)[C@@H]2CCN2C(=O)[C@H](C)N(C)C1=O [PP0118] ([NMeL]I[NMeA][Aze][X32][Sar][hPhe(3-Cl-4-CF3)]P[Ac5c][NMeGly(cPent)][NMeD]-Morpholide; lactam N-11) | C (A compound having a KD ratio of 0.1 or more and less than 3 is denoted as C) | C (A compound having a KD ratio of 0.1 or more and less than 3 is denoted as C) |
| CC[C@H](C)[C@@H]1NC(=O)[C@H](CC(C)C)N(C)C(=O)C[C@@H](C(=O)N2CCOCC2)N(C)C(=O)[C@H](C2CCCC2)N(C)C(=O)C2(CCCC2)NC(=O)[C@@H]2CCCN2C(=O)[C@H](CCc2ccc(C(F)(F)F)c(Cl)c2)NC(=O)CN(C)C(=O)[C@H](Cc2ccc(C(F)(F)F)cc2)N(CCCOC)C(=O)[C@@H]2CCN2C(=O)[C@H](C)N(C)C1=O [PP0119] ([NMeL]I[NMeA][Aze][X42][Sar][hPhe(3-Cl-4-CF3)]P[Ac5c][NMeGly(cPent)][NMeD]-Morpholide; lactam N-11) | C (A compound having a KD ratio of 0.1 or more and less than 3 is denoted as C) | C (A compound having a KD ratio of 0.1 or more and less than 3 is denoted as C) |
| CCCCN1C(=O)CN(C)C(=O)CN(C)C(=O)[C@H]([C@@H](C)CC)NC(=O)[C@H](CC(C)C)N(C)C(=O)C[C@@H](C(=O)N2CCOCC2)N(C)C(=O)[C@H](C2CCCC2)N(C)C(=O)C2(CCCC2)NC(=O)[C@@H]2CCCN2C(=O)[C@H](CCc2ccc(C(F)(F)F)c(Cl)c2)NC(=O)CN(C)C(=O)[C@@H]1Cc1ccc(C(F)(F)F)cc1 [PP0120] ([NMeL]I[Sar][Sar][X17][Sar][hPhe(3-Cl-4-CF3)]P[Ac5c][NMeGly(cPent)][NMeD]-Morpholide; lactam N-11) | C (A compound having a KD ratio of 0.1 or more and less than 3 is denoted as C) | B (a compound having 3 or more and less than 10 is denoted as B) |
| CC[C@H](C)[C@@H]1NC(=O)[C@H](CC(C)C)N(C)C(=O)C[C@@H](C(=O)N2CCOCC2)N(C)C(=O)[C@H](C2CCCC2)N(C)C(=O)C2(CCCC2)NC(=O)[C@@H]2CCCN2C(=O)[C@H](CCc2ccc(C(F)(F)F)c(Cl)c2)NC(=O)CN(C)C(=O)[C@H](Cc2ccc(C(F)(F)F)cc2)N(CC(C)C)C(=O)CN(C)C(=O)CN(C)C1=O [PP0121] ([NMeL]I[Sar][Sar][X23][Sar][hPhe(3-Cl-4-CF3)]P[Ac5c][NMeGly(cPent)][NMeD]-Morpholide; lactam N-11) | C (A compound having a KD ratio of 0.1 or more and less than 3 is denoted as C) | C (A compound having a KD ratio of 0.1 or more and less than 3 is denoted as C) |
| CC[C@H](C)[C@@H]1NC(=O)[C@H](CC(C)C)N(C)C(=O)C[C@@H](C(=O)N2CCOCC2)N(C)C(=O)[C@H](C2CCCC2)N(C)C(=O)C2(CCCC2)NC(=O)[C@@H]2CCCN2C(=O)[C@H](CCc2ccc(C(F)(F)F)c(Cl)c2)NC(=O)CN(C)C(=O)[C@H](Cc2ccc(C(F)(F)F)cc2)N(CC2CC2)C(=O)CN(C)C(=O)CN(C)C1=O [PP0122] ([NMeL]I[Sar][Sar][X31][Sar][hPhe(3-Cl-4-CF3)]P[Ac5c][NMeGly(cPent)][NMeD]-Morpholide; lactam N-11) | C (A compound having a KD ratio of 0.1 or more and less than 3 is denoted as C) | C (A compound having a KD ratio of 0.1 or more and less than 3 is denoted as C) |
